Assay results as given in ChEMBL document CHEMBL1201862, “PubChem BioAssay data set” (2004).
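Cultured in 96-well plates, cells were exposed to test compound for 48 hours across five concentrations. Abbreviation: GI50, concentration required for 50% inhibition of growth.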 The source made the active and inactive calls. Rule as the data show it: active = GI50 up to about 1.1 µM and inactive = higher.

Key:
Assay in all cases: DTP human tumour cell line panel, 48 h
786-0 = system: 786-0
A549 = system: A549
HCT-15 = system: HCT-15
IGROV-1 = system: IGROV-1
LOX IMVI = system: LOX IMVI
Malme-3M = system: Malme-3M
NCI-H226 = system: NCI-H226
NCI-H23 = system: NCI-H23
OVCAR-4 = system: OVCAR-4
OVCAR-5 = system: OVCAR-5
OVCAR-8 = system: OVCAR-8
SF-268 = system: SF-268
SK-MEL-5 = system: SK-MEL-5
SNB-19 = system: SNB-19
TK-10 = system: TK-10
UACC-62 = system: UACC-62
UO-31 = system: UO-31
NCI-H522 = system: NCI-H522
SK-MEL-2 = system: SK-MEL-2

| SMILES | GI50 (786-0) | GI50 (A549) | GI50 (HCT-15) [µM] | GI50 (IGROV-1) | GI50 (LOX IMVI) | GI50 (Malme-3M) | GI50 (NCI-H226) | GI50 (NCI-H23) | GI50 (OVCAR-4) | GI50 (OVCAR-5) | GI50 (OVCAR-8) | GI50 (SF-268) | GI50 (SK-MEL-5) | GI50 (SNB-19) | GI50 (TK-10) | GI50 (UACC-62) | GI50 (UO-31) | GI50 (NCI-H522) | GI50 (SK-MEL-2) |
| --- | --- | --- | --- | --- | --- | --- | --- | --- | --- | --- | --- | --- | --- | --- | --- | --- | --- | --- | --- |
| c1ccc(CCN2CCc3[nH]c4ccccc4c3C2)cc1 | 17.1 µM (inactive) | 24.6 µM (inactive) | 23.4 | 23.9 µM (inactive) | 19.5 µM (inactive) | 17.1 µM (inactive) | 29.8 µM (inactive) | 30.5 µM (inactive) | 40.4 µM (inactive) | 20 µM (inactive) | 20.4 µM (inactive) | 71.1 µM (inactive) | 16.5 µM (inactive) | 20.8 µM (inactive) | 24.3 µM (inactive) | > 10 µM (inactive) | 13.6 µM (inactive) | – | – |
| Nc1nc2ncn(CCO)c2c(=S)[nH]1 | > 100 µM (inactive) | > 100 µM (inactive) | > 100 | > 100 µM (inactive) | > 100 µM (inactive) | > 100 µM (inactive) | > 100 µM (inactive) | – | > 100 µM (inactive) | > 100 µM (inactive) | > 100 µM (inactive) | > 100 µM (inactive) | > 100 µM (inactive) | > 100 µM (inactive) | > 100 µM (inactive) | > 100 µM (inactive) | > 100 µM (inactive) | > 100 µM (inactive) | > 100 µM (inactive) |
| CC(C)CC(=O)N1CCN(C(=O)CC(C)C)c2ccccc21 | > 100 µM (inactive) | > 100 µM (inactive) | – | > 100 µM (inactive) | > 100 µM (inactive) | > 100 µM (inactive) | – | > 100 µM (inactive) | – | > 100 µM (inactive) | > 100 µM (inactive) | > 100 µM (inactive) | – | > 100 µM (inactive) | > 100 µM (inactive) | – | > 100 µM (inactive) | > 100 µM (inactive) | > 100 µM (inactive) |
| O=C1[C@@H](c2ccc(Cl)cc2)[C@H]2CC=C[C@H]2N1O | > 100 µM (inactive) | > 100 µM (inactive) | 91.4 | > 100 µM (inactive) | > 100 µM (inactive) | > 100 µM (inactive) | > 100 µM (inactive) | > 100 µM (inactive) | – | – | > 100 µM (inactive) | > 100 µM (inactive) | > 100 µM (inactive) | > 100 µM (inactive) | > 100 µM (inactive) | > 100 µM (inactive) | 89.7 µM (inactive) | 71.1 µM (inactive) | > 100 µM (inactive) |
| CC1(C)O[C@H]2[C@H](O)C[C@](O)(CO)C[C@H]2O1 | > 100 µM (inactive) | > 100 µM (inactive) | > 100 | > 100 µM (inactive) | – | > 100 µM (inactive) | > 100 µM (inactive) | > 100 µM (inactive) | > 100 µM (inactive) | > 100 µM (inactive) | > 100 µM (inactive) | – | > 100 µM (inactive) | > 100 µM (inactive) | > 100 µM (inactive) | > 100 µM (inactive) | > 100 µM (inactive) | > 100 µM (inactive) | > 100 µM (inactive) |
| COc1ccc2c3c1O[C@H]1C(OC)C=CC4C(C2)N(Cc2cccs2)CCC341 (stereo partly specified) | > 100 µM (inactive) | 53.8 µM (inactive) | 55.2 | > 100 µM (inactive) | > 100 µM (inactive) | > 100 µM (inactive) | – | 38.8 µM (inactive) | – | > 100 µM (inactive) | 77.4 µM (inactive) | > 100 µM (inactive) | – | > 100 µM (inactive) | 92.5 µM (inactive) | > 10 µM (inactive) | > 100 µM (inactive) | > 100 µM (inactive) | – |
| CC1=C2C(c3ccccc3)(c3ccccc3)C3C=CC2(C=N3)N(C(=O)NC2CCCCC2)C1=O (stereo unspecified) | 15.4 µM (inactive) | 16.9 µM (inactive) | 16.4 | 18.9 µM (inactive) | 15.7 µM (inactive) | 17.4 µM (inactive) | – | 18.4 µM (inactive) | 17.6 µM (inactive) | 17.7 µM (inactive) | 17.9 µM (inactive) | 17.4 µM (inactive) | 16.8 µM (inactive) | 17.6 µM (inactive) | – | 18.7 µM (inactive) | 14.3 µM (inactive) | – | – |
| COC(=O)c1cc2c(nc1C)-c1ccccc1OS2(=O)=O | 70 µM (inactive) | > 100 µM (inactive) | > 100 | > 100 µM (inactive) | > 100 µM (inactive) | > 100 µM (inactive) | > 100 µM (inactive) | > 100 µM (inactive) | > 100 µM (inactive) | > 100 µM (inactive) | 79.8 µM (inactive) | 45.5 µM (inactive) | > 100 µM (inactive) | 81.3 µM (inactive) | 83.2 µM (inactive) | > 100 µM (inactive) | > 100 µM (inactive) | > 100 µM (inactive) | – |
| C/C(CCn1[nH]c(=O)ccc1=O)=N\Nc1ccc([N+](=O)[O-])cc1[N+](=O)[O-] | > 100 µM (inactive) | > 100 µM (inactive) | 23.6 | > 100 µM (inactive) | 26.8 µM (inactive) | > 100 µM (inactive) | > 100 µM (inactive) | > 100 µM (inactive) | > 100 µM (inactive) | > 100 µM (inactive) | 93.1 µM (inactive) | > 100 µM (inactive) | 41.8 µM (inactive) | > 100 µM (inactive) | > 100 µM (inactive) | 5.9 µM (inactive) | 12.7 µM (inactive) | – | > 100 µM (inactive) |
| Cc1ccc(C2=C(c3ccccc3)C(O)(c3ccccc3)C(c3ccccc3)=C2c2ccc(C)cc2)cc1 | > 100 µM (inactive) | > 100 µM (inactive) | 35.2 | > 100 µM (inactive) | – | > 100 µM (inactive) | > 100 µM (inactive) | 69.3 µM (inactive) | – | > 100 µM (inactive) | > 100 µM (inactive) | > 100 µM (inactive) | > 100 µM (inactive) | > 100 µM (inactive) | 77.4 µM (inactive) | – | 78.7 µM (inactive) | > 100 µM (inactive) | 6.17 µM (inactive) |
| O=[N+]([O-])c1c(/C=N/c2ccccc2)oc(-c2ccc3c(c2)OCO3)c1-c1ccc2c(c1)OCO2 | > 100 µM (inactive) | > 100 µM (inactive) | > 100 | > 100 µM (inactive) | > 100 µM (inactive) | > 100 µM (inactive) | 48.8 µM (inactive) | > 100 µM (inactive) | > 100 µM (inactive) | > 100 µM (inactive) | > 100 µM (inactive) | > 100 µM (inactive) | > 100 µM (inactive) | > 100 µM (inactive) | > 100 µM (inactive) | > 100 µM (inactive) | 9.29 µM (inactive) | > 100 µM (inactive) | – |
| CC1(C)CC(N(C(=O)/C=C/c2ccc([N+](=O)[O-])o2)C2CCCCC2)CC(C)(C)N1 | 6.82 µM (inactive) | 15 µM (inactive) | 7.45 | 14.3 µM (inactive) | 12 µM (inactive) | – | – | 9.46 µM (inactive) | 10.4 µM (inactive) | 23.6 µM (inactive) | 5.2 µM (inactive) | 7.62 µM (inactive) | 10.2 µM (inactive) | 13.1 µM (inactive) | 21.3 µM (inactive) | 10 µM (inactive) | 12.2 µM (inactive) | 7.91 µM (inactive) | – |
| O=C(NC(Cc1c[nH]c2ccccc12)C(=O)O)/C(=C/c1ccccc1O)NC(=O)c1ccccc1 (stereo unspecified) | 18.6 µM (inactive) | 60.5 µM (inactive) | 25.6 | 19.2 µM (inactive) | 33 µM (inactive) | 22.4 µM (inactive) | 16.3 µM (inactive) | 51.6 µM (inactive) | 57.5 µM (inactive) | > 100 µM (inactive) | 15.5 µM (inactive) | 17.6 µM (inactive) | > 100 µM (inactive) | 22.7 µM (inactive) | 37.7 µM (inactive) | 24.2 µM (inactive) | 6.78 µM (inactive) | 20.4 µM (inactive) | – |
| CCN(CC)CCOc1ccc(C(=C2CCCCC2)c2ccc(OCCN(CC)CC)cc2)cc1 | 1.39 µM (inactive) | 1.62 µM (inactive) | 1.54 | 1.71 µM (inactive) | 1.23 µM (inactive) | 1.72 µM (inactive) | 2.15 µM (inactive) | 1.86 µM (inactive) | 2.31 µM (inactive) | 1.79 µM (inactive) | 1.73 µM (inactive) | 1.68 µM (inactive) | 1.58 µM (inactive) | 1.73 µM (inactive) | 1.5 µM (inactive) | – | 1.59 µM (inactive) | 1.76 µM (inactive) | 1.93 µM (inactive) |
| CN(C)c1ccc(Cc2cc(C(C)(C)C)cc(C(C)(C)C)c2O)cc1 | 18.5 µM (inactive) | 19.8 µM (inactive) | 15.8 | 18 µM (inactive) | 10.6 µM (inactive) | 22.5 µM (inactive) | – | 16.1 µM (inactive) | 21.3 µM (inactive) | 6.27 µM (inactive) | 20 µM (inactive) | 17.3 µM (inactive) | 15.6 µM (inactive) | 21.6 µM (inactive) | 13.2 µM (inactive) | 14.7 µM (inactive) | 17.2 µM (inactive) | 18.4 µM (inactive) | 6.87 µM (inactive) |
| C=C(C)[C@H](O)C(O)CC(C)[C@@H]1CCC23CC12CCC1[C@@]2(C)CCC(OC(C)=O)C(C)(C)C2CC(OC2OC(COC(C)=O)C(O)C(O)C2O)[C@]13C (stereo partly specified) | 7.4 µM (inactive) | 6.21 µM (inactive) | 4.86 | 3.78 µM (inactive) | 4.86 µM (inactive) | 7.91 µM (inactive) | 5.45 µM (inactive) | 7.59 µM (inactive) | 7.71 µM (inactive) | 7.69 µM (inactive) | 6.47 µM (inactive) | 5.31 µM (inactive) | – | 5.9 µM (inactive) | 6.55 µM (inactive) | 3.84 µM (inactive) | 8.18 µM (inactive) | 4.35 µM (inactive) | 8.83 µM (inactive) |
